# According to publication PMC9945734 (BMC Medicine, 2023):
# Where two headings read alike, the source gives them in different places.
# Test system: PC-3-KQ cells
# Assay: 3D spheroid invasion assay and screening of FDA-approved drugs
# Type: cell-based, human
# Conditions: compared to vehicle control; for activity at 0.01 µM / activity at 0.1 µM / activity at 1 µM / activity at 10 µM: Homo sapiens, 72 h, read-out: Invasion rates (%) of each drug’s multiple concentrations
# Procedure: The invasion assay was performed as previously described. […] The plates were then centrifuged at 320 g for 4 min to cluster cells in the bottom of wells and incubated for 3 days. On the fourth day, 40 μL medium was removed from each well, 40 μL of the matrigel-medium mixture was added to each well, and cells were cultured for another 3 days. […] At the end of the incubation, images were taken using a phase contrast microscope (Eclipse Ti2, Nikon, Tokyo, Japan) with 10× object lenses, and the total area of cells and the core sphere area of cells (Fig. 1a) were measured using the Image J software. The invading area was calculated using the following formula: invasion area = total area of cells – core sphere area.
# For drug screening, drugs were added to the matrigel-medium mixture when replacing the culture medium on day 4. For the initial round of screening, a final concentration of 10 μM was used for all drugs. Multiple drug concentrations were used for the second round of screening, including 0, 0.001, 0.01, 0.1, 1, and 10 μM. Duplicate wells were repeated for each concentration.
# [1] = 0.01 μM (first column so headed), secondary screening of 87 hit compounds (Table S1)
# [2] = 0.01 μM (second column so headed), secondary screening of 87 hit compounds (Table S1)
# [3] = 0.1 μM, secondary screening of 87 hit compounds (Table S1)
# [4] = 1 μM, secondary screening of 87 hit compounds (Table S1)
# [5] = 10 μM, secondary screening of 87 hit compounds (Table S1)
# [6] = 0.01 μM (first column so headed), third screening of 25 hit compounds (Table S2)
# [7] = 0.01 μM (second column so headed), third screening of 25 hit compounds (Table S2)
# [8] = 0.1 μM, third screening of 25 hit compounds (Table S2)
# [9] = 1 μM, third screening of 25 hit compounds (Table S2)
# [10] = 10 μM, third screening of 25 hit compounds (Table S2)
Molecule,activity at 0.01 µM [1],activity at 0.01 µM [2],activity at 0.1 µM [3],activity at 1 µM [4],activity at 10 µM [5],Invasion rates (%) of each drug’s multiple concentrations (μM) [1],Invasion rates (%) of each drug’s multiple concentrations (μM) [2],Invasion rates (%) of each drug’s multiple concentrations (μM) [3],Invasion rates (%) of each drug’s multiple concentrations (μM) [4],Invasion rates (%) of each drug’s multiple concentrations (μM) [5],further results
CN(C)[C@@H]1C(O)=C(C(N)=O)C(=O)[C@@]2(O)C(O)=C3C(=O)c4c(O)cccc4[C@@](C)(O)[C@H]3[C@H](O)[C@@H]12 [Oxytetracycline],84.1%,91%,82.2%,71.3%,8.26%,–,–,–,–,–,–
CC(C)C[C@H](NC(=O)CNC(=O)c1cc(Cl)ccc1Cl)B(O)O [Ixazomib],35.2%,76.3%,22.3%,3.86%,1.01%,–,–,–,–,–,activity at 0.01 µM [6]: 83.1%; activity at 0.01 µM [7]: 95.7%; activity at 0.1 µM [8]: 76.1%; activity at 1 µM [9]: 0.53%; activity at 10 µM [10]: 0.3%
CCN1CCN(Cc2ccc(Nc3ncc(F)c(-c4cc(F)c5nc(C)n(C(C)C)c5c4)n3)nc2)CC1.CS(=O)(=O)O [Abemaciclib (methanesulfonate)],–,–,–,–,–,93.33%,94.22%,93.89%,89.88%,47.24%,–
CCO[C@H]1O[C@@H]2O[C@@]3(C)CC[C@H]4[C@H](C)CC[C@@H]([C@H]1C)[C@@]24OO3 [Artemotil],96.2%,95.5%,90.7%,85.7%,0.51%,–,–,–,–,–,–
Cc1ncc([N+](=O)[O-])n1CC(O)CCl (stereo not shown) [Ornidazole (Levo-)],–,–,–,–,–,90.43%,93.59%,87.04%,71.01%,4.84%,–
CC[C@@]1(O)C[C@H](O[C@H]2C[C@H](N(C)C)[C@H](O[C@H]3C[C@H](O)[C@H](O[C@H]4CCC(=O)[C@H](C)O4)[C@H](C)O3)[C@H](C)O2)c2c(cc3c(c2O)C(=O)c2c(O)cccc2C3=O)[C@H]1C(=O)OC.Cl [Aclacinomycin A hydrochloride],–,–,–,–,–,84.24%,96.55%,76.95%,81.36%,1.28%,–
CCN(CC)CCNC(=O)c1c(C)[nH]c(/C=C2\C(=O)Nc3ccc(F)cc32)c1C [Sunitinib],88.6%,94.9%,83.7%,61.1%,0.8%,–,–,–,–,–,–
CS(=O)(=O)c1ccc([C@@H](O)[C@@H](CO)NC(=O)C(Cl)Cl)cc1 [Thiamphenicol],90.9%,92%,91.7%,71.5%,6.21%,–,–,–,–,–,–
CO[C@@H]1[C@@H](O[C@@H]2O[C@H](C)[C@@H](O[C@H]3C[C@@](C)(O)[C@@H](OC(=O)CC(C)C)[C@H](C)O3)[C@H](N(C)C)[C@H]2O)[C@@H](CC=O)C[C@@H](C)[C@@H](O)/C=C/C=C/C[C@@H](C)OC(=O)C[C@H]1OC(C)=O [Josamycin],88.6%,86.9%,86.7%,78%,15.5%,–,–,–,–,–,–
CCc1c(Cl)c(O)c(Cl)c(O)c1C(=O)O[C@H]1[C@H](O)[C@H](OC)[C@H](OC/C2=C\C=C\C[C@H](O)/C(C)=C/[C@H](CC)[C@@H](O[C@@H]3OC(C)(C)[C@@H](OC(=O)C(C)C)[C@H](O)[C@@H]3O)/C(C)=C/C(C)=C/C[C@@H]([C@@H](C)O)OC2=O)O[C@@H]1C [Fidaxomicin],100%,103%,99.5%,96%,41.5%,–,–,–,–,–,–
Acetylspiramycin,–,–,–,–,–,96.71%,96.46%,96.77%,87.68%,2.37%,–
CN1C[C@@H]2C[C@H]1CN2c1cc2c(cc1F)c(=O)c(C(=O)O)cn2C1CC1.CS(=O)(=O)O [Danofloxacin (mesylate)],–,–,–,–,–,94.09%,90.56%,86.22%,14.57%,3.38%,Invasion rates (%) of each drug’s multiple concentrations (μM) [6]: 93.23%; Invasion rates (%) of each drug’s multiple concentrations (μM) [7]: 98.11%; Invasion rates (%) of each drug’s multiple concentrations (μM) [8]: 87.17%; Invasion rates (%) of each drug’s multiple concentrations (μM) [9]: 77.40%; Invasion rates (%) of each drug’s multiple concentrations (μM) [10]: 2.06%
CN(C)C(=O)c1cc2cnc(Nc3ccc(N4CCNCC4)cn3)nc2n1C1CCCC1 [Ribociclib],99.5%,101%,97.2%,96%,30.9%,–,–,–,–,–,–
CC(=O)OC[C@H]1O[C@@H]([S-])[C@H](OC(C)=O)[C@@H](OC(C)=O)[C@@H]1OC(C)=O.CCP(CC)CC.[Au+] [Auranofin],–,–,–,–,–,98.81%,100.66%,95.62%,2.03%,0.38%,Invasion rates (%) of each drug’s multiple concentrations (μM) [6]: 93.68%; Invasion rates (%) of each drug’s multiple concentrations (μM) [7]: 97.35%; Invasion rates (%) of each drug’s multiple concentrations (μM) [8]: 88.21%; Invasion rates (%) of each drug’s multiple concentrations (μM) [9]: 2.34%; Invasion rates (%) of each drug’s multiple concentrations (μM) [10]: 0.76%
Cc1cc(Nc2ncc(Cl)c(Nc3ccccc3S(=O)(=O)C(C)C)n2)c(OC(C)C)cc1C1CCNCC1.Cl.Cl [Ceritinib dihydrochloride],–,–,–,–,–,88.46%,86.07%,92.06%,86.82%,39.86%,–
CCN(CC)CCOc1ccc2c(c1)C(=O)c1cc(OCCN(CC)CC)ccc1-2.Cl.Cl [Tilorone (dihydrochloride)],–,–,–,–,–,95.38%,99.11%,94.30%,93.22%,9.81%,–
CNC[C@H](O)c1cccc(O)c1.Cl [(R)-(-)-Phenylephrine (hydrochloride)],–,–,–,–,–,103.19%,103.23%,98.23%,96.01%,4.27%,–
O.O.O.O.O.O.O.O=C1N=C([O-])CN1/N=C/c1ccc(-c2ccc([N+](=O)[O-])cc2)o1.O=C1N=C([O-])CN1/N=C/c1ccc(-c2ccc([N+](=O)[O-])cc2)o1.[Na+].[Na+] [Dantrolene (sodium hemiheptahydrate)],–,–,–,–,–,102.88%,101.64%,90.54%,82.27%,29.15%,–
O=C(N/N=C/c1ccc([N+](=O)[O-])o1)c1ccc(O)cc1 [Nifuroxazide],68.1%,86.4%,50.2%,9.13%,2.06%,–,–,–,–,–,activity at 0.01 µM [6]: 97.2%; activity at 0.01 µM [7]: 94.3%; activity at 0.1 µM [8]: 86.5%; activity at 1 µM [9]: 7.31%; activity at 10 µM [10]: 1.51%
